Test results: patent US20240109883A1, “Anti-Tumor Compositions and Methods” (priority 2020, published 2024)

Experiments:
Type in all cases: cell-based
MRC5 4d Toxicity Assay = settings: human, confluent MRC5 cells, DAPI cell count, read-out: MRC5 4 d Tox: CC50
Protocol: MRC5 cells were seeded in 96-well plates 1-2 days prior to treatment to ensure 100% confluence. On the day of treatment, cells were washed once and growth media was replaced. Compound (in DMSO) was added to cells using the following dilution scheme: 25, 12.5, 4.16, 1.4, 0.46, 0.15, 0.05 μM. Test concentrations were assayed in duplicate and included 0 μM (DMSO) control wells. Plates were incubated for 4 days. After treatment, cells were washed, fixed with 4% PFA and stained with DAPI. Plates were imaged using a Cytation 3 plate reader and nuclear DAPI staining was used to quantify cell survival. Dose-response plots were generated using CDD Vault to calculate CC50s.

cMYC = cMYC Degradation Assay (MDA-MB-231 cells, western blot); settings: 72 hours
Protocol: MDA-MB-231 cells were seeded in 6-well format in complete growth media containing 10% serum and incubated for 48 h to ensure 100% confluence. Compound was added to cells at 5 μM and 10 μM final concentrations for a treatment period of 72 hours. Cells were harvested in ice-cold IP buffer and lysates were cleared by centrifugation. Total protein concentration was determined for each sample by Bradford assay. Proteins were separated by 10% SDS-PAGE and blotted onto PVDF membranes. Membranes were blocked with CosmoBio PDVF blocking reagent for 1 hour, followed by overnight incubation with cMYC primary antibody (Abcam) at 4 C. After several washes, the membanes were probed with secondary antibody for 1 hour at room temperature. Fluorescent signal was acquired using an Odyssey CLx (LI-COR) and quantified using ImageJ software.

MCF7 cells = assay: MCF7 Cell Growth Inhibition Assay; settings: Homo sapiens, 24 h, 10% serum, DAPI cell count, 4-pt dilution from 10 μM
Protocol: MCF7 cells were seeded in 96-well plates at 10% confluence 24 h prior to treatment. Compound was added to cells in full growth media containing 10% serum, using a 2-fold, 4-pt dilution scheme beginning from 10 μM (10, 5, 2.5, 1.25 μM). Plates were incubated for 24 h. After treatment, cells were washed, fixed with 4% PFA and stained with DAPI. Plates were imaged using a Cytation 3 plate reader and nuclear DAPI staining was used to quantify cell number. % Growth relative to vehicle-treated (DMSO) control wells was plotted using Excel (See FIGS. 1-8). IC50s were calculated by fitting the data points to the following standard equation:
Growth=1−[Cmpd]^n/(IC50^n+[Cmpd]^n)
where [Cmpd] is the molar concentration of compound, the IC50 is the concentration where half-maximal effect is seen, and n is the Hill coefficient.

[1] = test system: human cytomegalovirus (HCMV); assay: Antiviral activity against human cytomegalovirus (HCMV) in MRC5 cells; settings: for IC50 / IC90: Human betaherpesvirus 5, 168 h, MRC5 cells, MOI 0.01 IU per cell, 7 days post infection, mCherry positive cells; for Selectivity Index: SI50: MRC5 TOX 7 d CC50 relative to HCMV IC50
Protocol: To assess their antiviral activity, some compounds were tested against human cytomegalovirus (HCMV) in vitro. Human MRC5 cells were grown to confluency (˜1.0×10^4 cells/well) in 96-well plate format in Dulbecco's Modified Eagle Medium (DMEM) supplemented with 10% fetal bovine serum (FBS) 2 mM L-glutamine, 0.1 mM non-essential amino acids, 10 mM HEPES, and 100 U/ml each of penicillin and streptomycin and infected with an HCMV variant expressing mCherry tagged pUL99 (the product of late viral UL99 gene) at a multiplicity of 0.01 infectious unit (IU) per cell. Assays were performed in triplicate. One hour later, medium of the cells was replaced with fresh medium containing the indicated compounds at 25, 12.5, 6.25, 3.13, 1.56, 0.78, 0.39 μM or the carrier in which the compounds are dissolved (DMSO). Final concentration of DMSO was 0.5% in each treatment. Virus yield in the culture was determined at 7 days post infection by quantification of fluorescent (mCherry positive) cells in each well by fluorescent microscopy. Results were plotted using CDD Vault (CDD Vault was developed by Collaborative Drug Discovery, Inc., 1633 Bayshore Hwy, Suite 342, Burlingame, CA 94010) in order to calculate IC50s and IC90s.

MRC5 TOX 7 d = settings: human

| SMILES | CC50 at 4 days (MRC5 4d Toxicity Assay) [µM] | MDA-MB-231 cMYC: Fold Decrease in Low MW Band at 5 μM (cMYC) [fold] | MDA-MB-231 cMYC: Fold Increase in High MW Band at 5 μM (cMYC) [fold] | MDA-MB-231 cMYC: Fold Decrease in Low MW Band at 10 μM (cMYC) [fold] | MDA-MB-231 cMYC: Fold Increase in High MW Band at 10 μM (cMYC) [fold] | MDA-MB-231 cMYC qualitative degredation (cMYC) | GI50 (MCF7 cells) [µM] | IC50 [1] [µM] | IC90 [1] [µM] | Selectivity Index: SI50 [1] | CC50 at 7 d (MRC5 TOX 7 d) [µM] |
| --- | --- | --- | --- | --- | --- | --- | --- | --- | --- | --- | --- |
| CNC(=O)N(C)c1ccc2c(c1)CN(c1ncc(Cc3ccc(-n4cccn4)cc3)s1)CC2 [Example 023] | > 25 | 0.04 | 0.22 | 0.0 | 0.2 | total | 1.2 | 0.874 | 2.9 | >15.5 | > 13.6 |
| NC(=O)Nc1ccc2c(c1)CN(c1ncc(Cc3ccc(-c4ncccn4)cc3)s1)CC2 [Example 001] | > 25 | 0.98 | 0.84 | 1.2 | 1.7 | no degradation | 31.7 | 1.46 | 8.72 | >7.1 | > 10.4 |
